One test concerns the target T1, USP10 polypeptide (Homo sapiens, UniProt Q14694).
T1 construct: His; made in house; host or cells: E. coli BL21 (pET-28a vector)
In words: Ub-AMC deubiquitination assay with USP10 polypeptide. The class given is biochemical. Conditions: USP10 4 μg/mL, Ub-AMC 300 nmol/L, vs DMSO, p<0.01. The method, then:
FIG. 17A is a concentration curve graph plotting the level of deubiquitination of Ub-AMC observed following incubation with the indicated amounts of USP10 polypeptide (μg). FIG. 17B is a graph plotting the level of deubiquitination of Ub-AMC in the presence (right) or absence (left) of 4 μg/mL of USP10 polypeptides and the indicated compound.
Briefly, the amount of Ub-AMC deubiquitination in vitro increased as the concentration of USP10 polypeptides increased (FIG. 17A).
N-ethylmaleimide (1 mM), Z-phe-ala fluoromethyl ketone ([…] dihydrochloride (10 μg/mL), E-64 (10 μM), chymostatia ([…] fluoride (40 μM), E-64d (0.5 μM), and cystatin (36 μg/mL) were tested for the ability to inhibit USP10 polypeptide activity using USP10 polypeptide (4 μg/mL) and Ub-AMC (300 nmol/L). Briefly, both enzyme (USP10 polypeptide) and substrate (Ub-AMC) were freshly prepared in USP10 reaction buffer (50 mmol/L Tris-HCl (pH 7.6), 0.5 mmol/L EDTA, 5 mmol/L DTT, 0.01% Triton X-100, and 0.05 mg/mL serum albumin) for each run. Each well (except substrate control wells) in a typical assay contained 4 μg/mL of USP10, the compound, or 2% DMSO. The wells were incubated for 30 minutes to attain equilibrium, and the enzymatic reaction was then initiated by adding the substrate (300 nmol/L of Ub-AMC). […]

The test system of test [1] is USP10 phosphorylation (PIKKs/ATM). In words: USP10 phosphorylation at SQ/TQ motifs after DNA damage (FLAG-USP10 IP, pSQ/TQ blot) in HCT116 cells. The conditions noted are these: Ku55933, 2 hours pretreatment; 10 Gy radiation; HCT116 cells with FLAG-USP10. The class given is cell-based.
Protocol: Forty-eight hours later, the cells were left untreated or treated with 10 Gy radiation, 40 J/m^2 UV, or 20 mM etoposide. After an additional 1 hour, the cells were harvested. Cell lysates were subjected to immunoprecipitation with anti-FLAG antibody and immunobloted with phospho-SQ/TQ (pSQ/TQ) antibody. […] After 2 hours of incubation, cells were left untreated or treated with 10 Gy radiation. The phosphorylation of USP10 was examined as in (FIG. 6C). […] Cells were left untreated or treated with 10 Gy radiation. USP10 phosphorylation was examined by pSQ/TQ antibody.
Cells were lysed with NETN buffer (20 mM Tris-HCl, pH 8.0, 100 mM NaCl, 1 mM EDTA, 0.5% Nonidet P-40) containing 50 mM β-glycerophosphate, 10 mM NaF, and 1 mg/mL each of pepstatin A, and aprotinin. Whole cell lysates obtained by centrifugation were incubated with 2 μg of antibody and protein A or protein G Sepharose beads (Amersham Biosciences) for 2 hours at 4° C. The immunocomplexes were then washed with NETN buffer three times and separated by SDS-PAGE. Immunoblotting was performed following standard procedures.

Results on three compounds are retold here after patent US10137174B2, “Methods and materials for treating cancers that express reduced levels of wild-type p53 polypeptides” (Mayo Foundation for Medical Education and Research, priority 2009, dated 2018).

The structures appear in SMILES notation.

T1 sequence (Q14694 whole entry): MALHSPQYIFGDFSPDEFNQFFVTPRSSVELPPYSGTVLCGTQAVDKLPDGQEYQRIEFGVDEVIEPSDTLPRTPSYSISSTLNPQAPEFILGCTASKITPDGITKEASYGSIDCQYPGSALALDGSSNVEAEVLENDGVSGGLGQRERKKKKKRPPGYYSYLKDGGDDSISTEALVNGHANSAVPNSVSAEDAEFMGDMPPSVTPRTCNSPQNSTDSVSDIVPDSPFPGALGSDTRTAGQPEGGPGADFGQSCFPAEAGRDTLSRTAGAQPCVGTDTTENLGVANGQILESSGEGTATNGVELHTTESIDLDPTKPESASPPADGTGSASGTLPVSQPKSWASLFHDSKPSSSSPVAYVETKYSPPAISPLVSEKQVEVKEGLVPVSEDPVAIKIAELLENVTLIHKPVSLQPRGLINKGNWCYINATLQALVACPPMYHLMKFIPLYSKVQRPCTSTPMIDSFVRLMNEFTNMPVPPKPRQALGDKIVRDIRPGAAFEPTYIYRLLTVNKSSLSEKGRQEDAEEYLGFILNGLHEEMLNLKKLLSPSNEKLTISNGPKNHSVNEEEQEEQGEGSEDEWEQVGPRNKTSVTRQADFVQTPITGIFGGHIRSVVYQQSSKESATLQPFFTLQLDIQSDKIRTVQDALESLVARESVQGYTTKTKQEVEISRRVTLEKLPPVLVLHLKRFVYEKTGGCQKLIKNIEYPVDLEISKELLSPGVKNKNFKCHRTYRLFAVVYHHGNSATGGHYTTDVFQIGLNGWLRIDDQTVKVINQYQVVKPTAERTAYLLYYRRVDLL

Turning to `C[C@H](NC(=O)[C@H](Cc1ccccc1)NC(=O)OCc1ccccc1)C(=O)CF` [Z-phe-ala fluoromethyl ketone], the “deubiquitinating activity of USP10 polypeptides” value on USP10 polypeptide (compound 80 μM) is given as “significantly inhibited”.
Take `O=c1cc(-c2cccc3c2Sc2ccccc2S3)oc(N2CCOCC2)c1` [KU55933]: in test [1], the “USP10 phosphorylation after IR” value is recorded as “inhibited”.
Regarding `CCN1C(=O)C=CC1=O` [N-ethylmaleimide], the “deubiquitinating activity of USP10 polypeptides” value on USP10 polypeptide (compound 1 mM) is reported as “significantly inhibited”.
